Results: patent US20180188258A1, “MARKER FOR HETEROGENEITY OF CANCER TISSUE, AND USE THEREOF” (Keio University, priority 2015, published 2018)

Tested on: cancer tissue of the Mix mouse (MDA-MB-231 + HCC1937 cells) and of the 231 mouse (MDA-MB-231 cells)
Assay: Study on therapeutic effects by anticancer drug in tumor-bearing mice (tumor volume over time)
Type: in vivo
Settings: Paclitaxel 3 mg/kg intraperitoneally once a week; Mix mouse compared with 231 mouse; BALB/c-nu; control physiological saline
Text: The MDA-MB-231 cell line and the HCC1937 cell line were mixed so that the cell number of the HCC1937 cell line was larger than the cell number of the MDA-MB-231 cell line, preferably the cell number of HCC1937 cell line:cell number of MDA-231 cell line was a ratio of 2:1 or more, for example, 9:1. Then, the cell mixture was transplanted into the fourth mammary gland adipose tissue of an immunodeficient mouse (4 weeks old, female, BALB/c-nu) to thereby construct a tumor-bearing mouse (hereinafter, sometimes referred to as “Mix mouse”). Only the MDA-MB-231 cell line and only the HCC1937 cell line were respectively transplanted into the fourth mammary gland adipose tissue of an immunodeficient mouse (4 weeks old, female, BALB/c-nu) to thereby construct tumor-bearing mice (hereinafter, sometimes referred to as “231 mouse” and “1937 mouse”, respectively) as controls.
Paclitaxel (3 mg/kg) was administered intraperitoneally once a week to Mix mouse and 231 mouse constructed in the same manner as in Experimental Example 2, the tumor diameter was measured with time, and temporal changes in tumor volume were observed (n=5 in each case). As controls, temporal changes in tumor volume were also observed for the groups (control groups) in which physiological saline was administered intraperitoneally in place of paclitaxel (n=5 in each case). […]

Structure (SMILES): CC(=O)O[C@H]1C(=O)[C@@]2(C)[C@H]([C@H](OC(=O)c3ccccc3)[C@]3(O)C[C@H](OC(=O)[C@H](O)[C@@H](NC(=O)c4ccccc4)c4ccccc4)C(C)=C1C3(C)C)[C@]1(OC(C)=O)CO[C@@H]1C[C@@H]2O [Paclitaxel]
- temporal changes in tumor volume (resistance of the cancer tissue to paclitaxel): the cancer tissue of the Mix mouse has higher resistance to paclitaxel than the cancer tissue of the 231 mouse
